Data taken from PMC7764985 (2020).

Tests used:
[1] = system: FB1_39 (DNA, aptamer) ATACCAGCTTATTCAATTAATCGCATTACCTTATACCAGCTTATTCAATTACGTCTGCACATACCAGCTTATTCAATTAGATAGTAAGTGCAATCT; test: microscale thermophoresis; conditions: 100 mM NaCl, 2 mM MgCl2, 5 mM KCl, 1 mM CaCl2; 20 mM Tris, pH 7.6, 25 °C; 5 nM aptamer
[2] = system: FB1_39t3 (DNA, aptamer) ATACCAGCTTATTCAATTAATCGCATTACCTTATACCAGCTTATTCAATTACGTCTGCACATACCAGCTTATTCAATT; test: microscale thermophoresis; conditions: 100 mM NaCl, 2 mM MgCl2, 5 mM KCl, 1 mM CaCl2; 20 mM Tris, pH 7.6, 25 °C; 5 nM aptamer
[3] = system: FB1_10 (DNA, aptamer) AGCAGCACAGAGGTCAGATGCGATCTGGATATTATTTTTGATACCCCTTTGGGGAGACATCCTATGCGTGCTACCGTGAA; test: microscale thermophoresis; conditions: 100 mM NaCl, 2 mM MgCl2, 5 mM KCl, 1 mM CaCl2; 20 mM Tris-HCl, 0.02% Tween 20, pH 7.4, 25 °C; 5 nM aptamer
[4] = system: FB1_10 (DNA, aptamer) AGCAGCACAGAGGTCAGATGCGATCTGGATATTATTTTTGATACCCCTTTGGGGAGACATCCTATGCGTGCTACCGTGAA; test: magnetic beads assay, fluorescence; conditions: 100 mM NaCl, 2 mM MgCl2, 5 mM KCl, 1 mM CaCl2; immobilised compound; 20 mM Tris-HCl, 0.02% Tween 20, pH 7.4, room temperature; aptamer up to 2000 nM
[5] = system: FB1_39t3 (DNA, aptamer) ATACCAGCTTATTCAATTAATCGCATTACCTTATACCAGCTTATTCAATTACGTCTGCACATACCAGCTTATTCAATT; test: magnetic beads assay, fluorescence; conditions: 100 mM NaCl, 2 mM MgCl2, 5 mM KCl, 1 mM CaCl2; immobilised compound; 20 mM Tris, pH 7.6, room temperature; aptamer up to 2000 nM
[6] = system: FB1_39 (DNA, aptamer) ATACCAGCTTATTCAATTAATCGCATTACCTTATACCAGCTTATTCAATTACGTCTGCACATACCAGCTTATTCAATTAGATAGTAAGTGCAATCT; test: magnetic beads assay, fluorescence; conditions: 100 mM NaCl, 2 mM MgCl2, 5 mM KCl, 1 mM CaCl2; immobilised compound; 20 mM Tris, pH 7.6, room temperature; aptamer 0.5-100 nM

KD [1]: 31 ± 22 nM
KD [2]: 2200 ± 1100 nM
KD [3]: 162 ± 137 nM
binding [4]: no
binding [5]: no
KD [6]: 1.53 ± 0.67 nM
Structure (SMILES): CCCC[C@@H](C)[C@@H](OC(=O)C[C@@H](CC(=O)O)C(=O)O)[C@H](C[C@@H](C)C[C@H](O)CCCC[C@@H](O)C[C@H](O)[C@H](C)N)OC(=O)C[C@@H](CC(=O)O)C(=O)O
